Results reported in patent US6589993B2, “Treating vancomycin-intermediates and multiresistant staphylococci infection with thiamphenicol or a salt thereof” (Zambon Group S.p.A., priority 2000, dated 2003).
Where two headings read alike, the source gives them in different places.

Columns and labels:
[1] = test system: S. aureus vancomycin-intermediates (VISA) Met-R strains; assay: MIC determination (NCCLS broth microdilution), VISA Met-R strains; type: cell-based, Staphylococcus aureus; conditions: for MIC: antibiotype Oxa, Cip, Clin, Ery
How it was run: (§1)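 NCCLS broth microdilution in cation-supplemented Mueller-Hinton broth, final inoculum 5×10^5 from exponential-phase bacteria; 2% NaCl added for methicillin testing. MIC taken as lowest concentration preventing visible growth after 18–24 h at 37 °C, with S. aureus ATCC 29213 as QC strain.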

[2] = test system: S. aureus Met-R multiresistant strains; assay: MIC determination (NCCLS broth microdilution), methicillin-resistant multiresistant S. aureus strains; type: cell-based, Staphylococcus aureus; conditions: for MIC: antibiotype Oxa, Ery, read-out: MIC
How it was run: as §1

[3] = test system: Staphylococci; conditions: toward strains of Staphylococci; Kayser et al. 1974; cited from earlier work

CS(=O)(=O)c1ccc([C@@H](O)[C@@H](CO)NC(=O)C(Cl)Cl)cc1 [Thiamphenicol, thiamphenicol]
2 to 4 times: in vitro activity relative to chloramphenicol (times less active) [3]
> 64 µg/mL: MIC ([2]; Staphylococcus aureus, Strain 2, Clin, Fos) | MIC ([2]; Staphylococcus aureus, Strain 5, Cip, Clin) | MIC ([2]; Staphylococcus aureus, Strain 6, Clin, Gm) | MIC ([2]; Staphylococcus aureus, Strain 8, Cip, Clin) | MIC ([2]; Staphylococcus aureus, Strain 11, Clin, Rif) | MIC ([2]; Staphylococcus aureus, Strain 12, Cip, Clin) | MIC ([2]; Staphylococcus aureus, Strain 18, Cip, Clin, Gm) | MIC ([2]; Staphylococcus aureus, Strain 20, Cip, Clin, Gm) | MIC ([2]; Staphylococcus aureus, Strain 21, Cip, Clin, Gm) | MIC ([2]; Staphylococcus aureus, Strain 23, Cip, Clin, Gm) | MIC ([2]; Staphylococcus aureus, Strain 24, Cip, Clin, Gm) | MIC ([2]; Staphylococcus aureus, Strain 28, Cip, Clin, Gm) | MIC ([2]; Staphylococcus aureus, Strain 32, Cip, Clin, Gm, SXT, Rif) | MIC ([2]; Staphylococcus aureus, Strain 33, Cip, Clin, Gm) | MIC ([2]; Staphylococcus aureus, Strain 34, Cip, Clin, Gm) | MIC ([2]; Staphylococcus aureus, Strain 48, Cip, Clin) | MIC ([2]; Staphylococcus aureus, Strain 50, Cip, Clin, Gm, Rif, Dox) | MIC90 ([2]; Staphylococcus aureus, S. aureus (50) Met-R, read-out: MIC 90%)
4 µg/mL: MIC ([2]; Staphylococcus aureus, Strain 10, Cip, Clin, Gm)
8 µg/mL: MIC ([2]; Staphylococcus aureus, Strain 1, Cip, Clin, Gm) | MIC ([2]; Staphylococcus aureus, Strain 4, Cip, Gm) | MIC ([2]; Staphylococcus aureus, Strain 9, Cip, Clin, Gm) | MIC ([2]; Staphylococcus aureus, Strain 16, Cip, Clin) | MIC ([2]; Staphylococcus aureus, Strain 38, Cip, Gm) | MIC ([2]; Staphylococcus aureus, Strain 42, Cip, Clin, Gm) | MIC ([2]; Staphylococcus aureus, Strain 47, Cip, Clin, Gm)
16 µg/mL: MIC ([1]; Staphylococcus aureus, Strain 51 VISA, read-out: MIC) | MIC ([1]; Strain 52 VISA) | MIC Range ([1]; VISA (2) Met-R) | MIC ([2]; Staphylococcus aureus, Strain 3, Cip, Clin, Gm) | MIC ([2]; Staphylococcus aureus, Strain 7, Cip, Gm) | MIC ([2]; Staphylococcus aureus, Strain 13, Cip, Clin) | MIC ([2]; Staphylococcus aureus, Strain 14, Clin, Cip) | MIC ([2]; Staphylococcus aureus, Strain 15, Cip, Clin, Gm) | MIC ([2]; Staphylococcus aureus, Strain 17, Cip, Clin) | MIC ([2]; Staphylococcus aureus, Strain 19, Cip, Clin, Gm) | MIC ([2]; Staphylococcus aureus, Strain 22, Cip, Clin) | MIC ([2]; Staphylococcus aureus, Strain 25, Cip, Clin, Gm) | MIC ([2]; Staphylococcus aureus, Strain 26, Cip, Clin, Fos, Gm) | MIC ([2]; Staphylococcus aureus, Strain 27, Cip, Clin, Fos, Gm) | MIC ([2]; Staphylococcus aureus, Strain 29, Clin, Fos) | MIC ([2]; Staphylococcus aureus, Strain 30, Cip, Clin, Gm, SXT, Dox) | MIC ([2]; Staphylococcus aureus, Strain 31, Cip, Clin, Fox, Gm) | MIC ([2]; Staphylococcus aureus, Strain 35, Cip, Clin, Gm) | MIC ([2]; Staphylococcus aureus, Strain 36, Cip, Clin, Fos) | MIC ([2]; Staphylococcus aureus, Strain 37, Cip, Clin, Fos, Gm) | MIC ([2]; Staphylococcus aureus, Strain 39, Cip, Clin, Fos, Gm) | MIC ([2]; Staphylococcus aureus, Strain 40, Cip, Clin, Gm) | MIC ([2]; Staphylococcus aureus, Strain 41, Cip, Clin) | MIC ([2]; Staphylococcus aureus, Strain 43, Cip, Clin, Gm) | MIC ([2]; Staphylococcus aureus, Strain 44, Cip, Clin, Gm, Rif, Dox) | MIC ([2]; Staphylococcus aureus, Strain 45, Cip, Clin, Gm, Rif, Dox, Fos) | MIC ([2]; Staphylococcus aureus, Strain 46, Clin, Fos) | MIC ([2]; Staphylococcus aureus, Strain 49, Cip, Gm) | MIC50 ([2]; Staphylococcus aureus, S. aureus (50) Met-R, read-out: MIC 50%)
comparable to that as of cloramphenicol: activity (MIC) compared with cloramphenicol ([2]; VISA and multiresistant Staphylococcus aureus strains, in vitro)
66%: % susceptible at breakpoint ([2]; S. aureus (50) Met-R, NCCLS (1999) breakpoints)
100%: % susceptible at breakpoint ([1]; VISA (2) Met-R, NCCLS (1999) breakpoints)
